Measurements published in publication PMC11274883, “Anticancer Effect of Pt^[sequence], Pt^II5MESS, Pt^II56MESS and Their Platinum(IV)-Dihydroxy Derivatives against Triple-Negative Breast Cancer and Cisplatin-Resistant Colorectal Cancer” (Cancers, 2024).

Tests used:
Format in all cases: cell-based
HT29 cells [1] = assay: DCFDA cellular ROS detection assay; conditions: complexes at IC50, TBHP 20 µM
Outline: (§1)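 Cells seeded at 2500 cells/well overnight, then loaded with 25 µM DCFH-DA for 45 min. DCF fluorescence (ex/em 485/535 nm, RFU) read at multiple time points; 20 µM TBHP served as positive control. Three independent experiments in triplicate.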

MDA−MB−231 cells [2] = assay: DCFDA cellular ROS detection assay; conditions: complexes at IC50, TBHP 20 µM
Outline: as §1

HT29 cells [3] = assay: TMRE mitochondrial membrane potential assay; conditions: complexes at IC50, FCCP 20 µM
Outline: (§2)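 Cells treated with each complex at its IC50 concentration for 24, 48 or 72 h, then stained with 1 µM TMRE for 30 min and washed before fluorescence scanning. Three independent experiments in triplicate.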

MDA−MB−231 cells [4] = assay: TMRE mitochondrial membrane potential assay; conditions: complexes at IC50, FCCP 20 µM
Outline: as §2

HT29 cells [5] = assay: Western blot protein expression; conditions: HT29, IC50, 72 h
Outline: (§3)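 Cells were lysed in RIPA buffer with orthovanadate, and 20 µg protein was run on SDS-PAGE, transferred to PVDF and probed for proliferation, apoptosis, microtubule and autophagy markers. ECL band intensities were normalised to GAPDH and then to untreated control. Three independent experiments were run per marker.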

MDA−MB−231 cells [6] = assay: Western blot protein expression; conditions: MDA−MB−231, IC50, 72 h
Outline: as §3

[7] = representative blot Figure S30G
[8] = representative blot Figure S30H

N.N.[Cl][Pt][Cl] [Cisplatin, cisplatin]
ROS production (HT29 cells [1]; HT29, 24 h): 205.39 RFU
ROS production (HT29 cells [1]; HT29, 48 h): 285.11 RFU
ROS production (HT29 cells [1]; HT29, 72 h): 316.55 RFU
ROS production (MDA−MB−231 cells [2]; MDA−MB−231, 24 h): 279.82 RFU
ROS production (MDA−MB−231 cells [2]; MDA−MB−231, 48 h): 325.96 RFU
ROS production (MDA−MB−231 cells [2]; MDA−MB−231, 72 h): 369.97 RFU
MtMp (mitochondrial membrane potential) (HT29 cells [3]; HT29, 24 h): 270.02 RFU
MtMp (mitochondrial membrane potential) (HT29 cells [3]; HT29, 48 h): 237.68 RFU
MtMp (mitochondrial membrane potential) (HT29 cells [3]; HT29, 72 h): 188.59 RFU
MtMp (mitochondrial membrane potential) (MDA−MB−231 cells [4]; MDA−MB−231, 24 h): 208.24 RFU
MtMp (mitochondrial membrane potential) (MDA−MB−231 cells [4]; MDA−MB−231, 48 h): 177.91 RFU
MtMp (mitochondrial membrane potential) (MDA−MB−231 cells [4]; MDA−MB−231, 72 h): 154.83 RFU
β-actin/GAPDH normalized to control (1) (HT29 cells [5]; representative blot Figure S28A): 0.6345
β-tubulin/GAPDH normalized to control (1) (HT29 cells [5]; representative blot Figure S28B): 0.8003
α-tubulin/GAPDH normalized to control (1) (HT29 cells [5]; representative blot Figure S28C): 0.8201
p-AKT/AKT/GAPDH normalized to control (1) (HT29 cells [5]; representative blot Figure S29A): 0.288
p-ERK/ERK/GAPDH normalized to control (1) (HT29 cells [5]; representative blot Figure S29B): 1.125
p53/GAPDH normalized to control (1) (HT29 cells [5]; representative blot Figure S29C): 0.9507
p21/GAPDH normalized to control (1) (HT29 cells [5]; representative blot Figure S29D): 2.964
Bax/GAPDH normalized to control (1) (HT29 cells [5]; representative blot Figure S30A): 1.81
Bcl2/GAPDH normalized to control (1) (HT29 cells [5]; representative blot Figure S30B): 0.5659
Cyt C/GAPDH normalized to control (1) (HT29 cells [5]; representative blot Figure S30C): 2.419
Procaspase 8/GAPDH normalized to control (1) (HT29 cells [5]; representative blot Figure S30D): 0.004029
Cleaved BID/GAPDH normalized to control (1) (HT29 cells [5]; representative blot Figure S30E): 2.527
Procaspase 9/GAPDH normalized to control (1) (HT29 cells [5]; representative blot Figure S30F): 0.6388
Cleaved caspase 3/GAPDH normalized to control (1) (HT29 cells [5]; [7]): 11.81
Procaspase 3/GAPDH normalized to control (1) (HT29 cells [5]; [7]): 1.2
Cleaved PARP-1/GAPDH normalized to control (1) (HT29 cells [5]; [8]): 3.484
PARP-1/GAPDH normalized to control (1) (HT29 cells [5]; [8]): 0.8236
Beclin1/GAPDH normalized to control (1) (HT29 cells [5]; representative blot Figure S31A): 3.89
ATG5/GAPDH normalized to control (1) (HT29 cells [5]; representative blot Figure S31B): 1.193
ATG16L1/GAPDH normalized to control (1) (HT29 cells [5]; representative blot Figure S31C): 1.173
ATG9A/GAPDH normalized to control (1) (HT29 cells [5]; representative blot Figure S31D): 2.212
ATG4B/GAPDH normalized to control (1) (HT29 cells [5]; representative blot Figure S31E): 1.101
LC3B/GAPDH normalized to control (1) (HT29 cells [5]; representative blot Figure S31F): 3.233
LC3B protein expression level increase (MDA−MB−231 cells [6]; Figure 12D): up to 3 folds
β-actin/GAPDH normalized to control (1) (MDA−MB−231 cells [6]; representative blot Figure S24A): 0.5805
β-tubulin/GAPDH normalized to control (1) (MDA−MB−231 cells [6]; representative blot Figure S24B): 1.195
α-tubulin/GAPDH normalized to control (1) (MDA−MB−231 cells [6]; representative blot Figure S24C): 0.9486
p-AKT/AKT/GAPDH normalized to control (1) (MDA−MB−231 cells [6]; representative blot Figure S25A): 0.6181
p-ERK/ERK/GAPDH normalized to control (1) (MDA−MB−231 cells [6]; representative blot Figure S25B): 0.2123
p53/GAPDH normalized to control (1) (MDA−MB−231 cells [6]; representative blot Figure S25C): 1.585
p21/GAPDH normalized to control (1) (MDA−MB−231 cells [6]; representative blot Figure S25D): 1.351
Bax/GAPDH normalized to control (1) (MDA−MB−231 cells [6]; representative blot Figure S26A): 1.836
Bcl2/GAPDH normalized to control (1) (MDA−MB−231 cells [6]; representative blot Figure S26B): 0.7529
Cytochrome C/GAPDH normalized to control (1) (MDA−MB−231 cells [6]; representative blot Figure S26C): 2.371
Procaspase 8/GAPDH normalized to control (1) (MDA−MB−231 cells [6]; representative blot Figure S26D): 0.5682
Cleaved BID/GAPDH normalized to control (1) (MDA−MB−231 cells [6]; representative blot Figure S26E): 11.07
Procaspase 9/GAPDH normalized to control (1) (MDA−MB−231 cells [6]; representative blot Figure S26F): 1.122
Procaspase 3/GAPDH normalized to control (1) (MDA−MB−231 cells [6]; representative blot Figure S26G): 0.8253
PARP-1/GAPDH normalized to control (1) (MDA−MB−231 cells [6]; representative blot Figure S26H): 0.7867
Beclin1/GAPDH normalized to control (1) (MDA−MB−231 cells [6]; representative blot Figure S27A): 0.9211
ATG5/GAPDH normalized to control (1) (MDA−MB−231 cells [6]; representative blot Figure S27B): 0.8216
ATG16L1/GAPDH normalized to control (1) (MDA−MB−231 cells [6]; representative blot Figure S27C): 0.9512
ATG9A/GAPDH normalized to control (1) (MDA−MB−231 cells [6]; representative blot Figure S27D): 0.6551
ATG4B/GAPDH normalized to control (1) (MDA−MB−231 cells [6]; representative blot Figure S27E): 1.551
LC3B/GAPDH normalized to control (1) (MDA−MB−231 cells [6]; representative blot Figure S27F): 1.368
